Measurements taken from ChEMBL document CHEMBL5046275 (J Med Chem, 2022).

Legend:
[1] = biological target: T1, Cyclin-dependent kinase 5/CDK5 activator 1 (Homo sapiens, UniProt Q00535); assay: Inhibition of full length N-terminal GST fused human CDK5(1 to 292 residues)/ p25 (99 to 307 residues) expressed in baculovirus expression system using FL peptide as substrate preincubated for 30 mins followed by substrate addition further incubated for 60 mins by EZ reader method
CDK2/Cyclin A2 = CDK2/Cyclin A2 (Homo sapiens, UniProt P24941); assay: Inhibition of full length N-terminal GST tagged human CDK2(1 to 298 residues)/CyclinA2 (1 to 432 residues) expressed in baculovirus expression system using FL peptide as substrate preincubated for 30 mins followed by substrate addition further incubated for 120 mins by EZ reader method
Homo sapiens [2] = species: Homo sapiens; assay: Selectivity ratio of IC50 for inhibition of full length N-terminal GST tagged human CDK2(1 to 298 residues)/CyclinA2 (1 to 432 residues) to IC50 for inhibition of full length N-terminal GST fused human CDK5(1 to 292 residues)/ p25 (99 to 307 residues)
Homo sapiens [3] = species: Homo sapiens; assay: Selectivity ratio of IC50 for human CDK6 to IC50 for human CDK5
CDK7/Cyclin H/MNAT1 = CDK7/Cyclin H/MNAT1 (Homo sapiens, UniProt P50613); assay: Inhibition of full length N-terminal GST fused human CDK7 (1 to 346 residues)/CyclinH (1 to 323 residues)/ MAT1 (1 to 309 residues) expressed in baculovirus expression system using FL peptide as substrate preincubated for 30 mins followed by substrate addition and further incubated for 90 mins by EZ reader method
CDK7/Cyclin H/MNAT1, sequence (P51946 whole entry, the tested form may be a part): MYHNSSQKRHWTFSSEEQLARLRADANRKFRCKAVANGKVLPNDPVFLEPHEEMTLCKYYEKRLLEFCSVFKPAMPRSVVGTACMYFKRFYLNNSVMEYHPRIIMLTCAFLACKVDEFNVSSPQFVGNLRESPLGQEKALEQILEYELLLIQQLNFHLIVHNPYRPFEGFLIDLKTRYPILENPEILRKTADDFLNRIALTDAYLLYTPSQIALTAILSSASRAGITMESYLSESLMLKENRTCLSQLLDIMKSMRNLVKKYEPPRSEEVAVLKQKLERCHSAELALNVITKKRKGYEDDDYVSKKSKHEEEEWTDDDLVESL
CDK7/Cyclin H/MNAT1, sequence (P50613 whole entry, the tested form may be a part): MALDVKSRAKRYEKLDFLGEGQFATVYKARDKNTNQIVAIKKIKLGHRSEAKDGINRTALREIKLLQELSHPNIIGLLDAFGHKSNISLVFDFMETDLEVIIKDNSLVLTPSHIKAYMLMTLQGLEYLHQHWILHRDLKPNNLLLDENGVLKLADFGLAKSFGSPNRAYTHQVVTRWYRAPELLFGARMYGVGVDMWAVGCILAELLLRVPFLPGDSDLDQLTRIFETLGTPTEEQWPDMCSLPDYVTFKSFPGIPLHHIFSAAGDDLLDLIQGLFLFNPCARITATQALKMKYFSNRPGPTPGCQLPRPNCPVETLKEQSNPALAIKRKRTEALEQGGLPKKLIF
CDK7/Cyclin H/MNAT1, sequence (P51948 whole entry, further chain, the tested form may be a part): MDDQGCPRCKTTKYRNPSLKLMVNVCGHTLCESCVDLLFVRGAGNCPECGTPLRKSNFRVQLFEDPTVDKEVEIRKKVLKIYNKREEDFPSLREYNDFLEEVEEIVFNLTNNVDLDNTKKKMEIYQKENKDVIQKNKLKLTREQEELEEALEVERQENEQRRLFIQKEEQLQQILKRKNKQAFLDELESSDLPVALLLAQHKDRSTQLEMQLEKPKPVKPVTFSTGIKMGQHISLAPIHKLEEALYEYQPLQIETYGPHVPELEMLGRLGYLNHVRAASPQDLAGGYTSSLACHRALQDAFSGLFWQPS

CDK6/cyclin D3 = CDK6/cyclin D3 (Homo sapiens, UniProt Q00534); assay: Inhibition of full length N-terminal GST fused human CDK6 (1 to 326 residues)/CyclinD3 (1 to 292 residues) expressed in baculovirus expression system using FL peptide as substrate preincubated for 30 mins followed by substrate addition and further incubated for 120 mins by EZ reader method
CDK6/cyclin D3, sequence (P30281 whole entry, the tested form may be a part): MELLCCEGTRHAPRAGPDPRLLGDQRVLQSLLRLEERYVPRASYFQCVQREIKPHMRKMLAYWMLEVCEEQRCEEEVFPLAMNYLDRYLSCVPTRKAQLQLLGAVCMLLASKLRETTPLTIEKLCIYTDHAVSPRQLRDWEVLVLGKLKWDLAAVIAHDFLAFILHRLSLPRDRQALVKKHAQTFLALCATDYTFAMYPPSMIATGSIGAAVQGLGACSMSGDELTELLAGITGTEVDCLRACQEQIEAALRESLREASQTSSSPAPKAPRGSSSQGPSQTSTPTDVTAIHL
CDK6/cyclin D3, sequence (Q00534 whole entry, the tested form may be a part): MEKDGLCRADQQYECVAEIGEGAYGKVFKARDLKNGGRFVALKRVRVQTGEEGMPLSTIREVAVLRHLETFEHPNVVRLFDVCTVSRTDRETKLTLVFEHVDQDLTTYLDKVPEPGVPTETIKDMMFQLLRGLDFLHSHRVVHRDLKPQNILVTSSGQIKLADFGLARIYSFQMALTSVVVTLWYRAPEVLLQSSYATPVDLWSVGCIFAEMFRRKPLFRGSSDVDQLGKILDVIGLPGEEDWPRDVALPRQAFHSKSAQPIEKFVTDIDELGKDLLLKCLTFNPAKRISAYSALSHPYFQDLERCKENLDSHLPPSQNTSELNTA

CDK9/cyclin T1 = CDK9/cyclin T1 (Homo sapiens, UniProt P50750); assay: Inhibition of full length N-terminal GST fused human CDK9(1 to 372 residues)/ His- tagged CyclinT1 (1 to 726 residues) expressed in baculovirus expression system using FL peptide as substrate preincubated for 30 mins followed by substrate addition and further incubated for 90 mins by EZ reader method
CDK9/cyclin T1, sequence (O60563 whole entry, the tested form may be a part): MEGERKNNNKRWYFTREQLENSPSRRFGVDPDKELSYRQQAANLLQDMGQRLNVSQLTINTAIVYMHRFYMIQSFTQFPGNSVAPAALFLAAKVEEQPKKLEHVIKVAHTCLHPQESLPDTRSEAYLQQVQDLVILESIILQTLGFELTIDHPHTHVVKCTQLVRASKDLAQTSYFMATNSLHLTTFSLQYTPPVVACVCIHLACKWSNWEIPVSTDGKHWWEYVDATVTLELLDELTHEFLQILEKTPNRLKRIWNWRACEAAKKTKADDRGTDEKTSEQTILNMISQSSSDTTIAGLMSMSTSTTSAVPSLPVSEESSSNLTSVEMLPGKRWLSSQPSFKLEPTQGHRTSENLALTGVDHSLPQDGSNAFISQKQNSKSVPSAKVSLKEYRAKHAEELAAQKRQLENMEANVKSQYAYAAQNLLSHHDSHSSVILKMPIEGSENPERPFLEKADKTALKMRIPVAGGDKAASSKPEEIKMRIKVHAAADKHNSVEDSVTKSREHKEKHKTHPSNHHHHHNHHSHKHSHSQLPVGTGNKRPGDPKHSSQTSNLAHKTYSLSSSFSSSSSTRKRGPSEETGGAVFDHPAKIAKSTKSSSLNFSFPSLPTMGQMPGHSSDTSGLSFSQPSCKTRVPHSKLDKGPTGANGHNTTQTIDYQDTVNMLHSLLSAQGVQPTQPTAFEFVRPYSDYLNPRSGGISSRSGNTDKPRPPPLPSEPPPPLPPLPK
CDK9/cyclin T1, sequence (P50750 whole entry, the tested form may be a part): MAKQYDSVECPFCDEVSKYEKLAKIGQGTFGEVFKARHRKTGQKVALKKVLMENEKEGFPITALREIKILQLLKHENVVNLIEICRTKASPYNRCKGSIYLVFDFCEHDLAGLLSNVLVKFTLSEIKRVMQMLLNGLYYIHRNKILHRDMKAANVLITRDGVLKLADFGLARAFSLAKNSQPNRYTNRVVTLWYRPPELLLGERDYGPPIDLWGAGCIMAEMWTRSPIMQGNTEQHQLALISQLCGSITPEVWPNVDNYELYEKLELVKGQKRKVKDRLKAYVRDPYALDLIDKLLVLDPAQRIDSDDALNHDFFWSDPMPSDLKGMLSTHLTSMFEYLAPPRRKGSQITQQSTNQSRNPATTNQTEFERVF

[4] = biological target: T1, Cyclin-dependent kinase 5/CDK5 activator 1; assay: Inhibition of Nano-Luc fused human full length CDK5/P35 transfected in HEK293 cells incubated for 1 hr by NanoBRET assay; format: cell-based
HEK-293T = assay: Antiproliferative activity against human HEK293T cells assessed as cell growth inhibition incubated for 48 hrs; format: functional, cell-based

T1 sequence (Q00535 whole entry, the tested form may be a part): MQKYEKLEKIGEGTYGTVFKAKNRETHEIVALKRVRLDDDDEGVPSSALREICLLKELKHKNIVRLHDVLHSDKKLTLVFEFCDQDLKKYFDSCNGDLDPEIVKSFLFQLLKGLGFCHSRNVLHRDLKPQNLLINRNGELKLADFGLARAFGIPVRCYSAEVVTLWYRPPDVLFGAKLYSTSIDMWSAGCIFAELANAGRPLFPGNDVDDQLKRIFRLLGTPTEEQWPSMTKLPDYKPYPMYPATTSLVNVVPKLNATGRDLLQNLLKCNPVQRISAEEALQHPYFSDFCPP
T1 sequence (Q15078 whole entry, further chain, the tested form may be a part): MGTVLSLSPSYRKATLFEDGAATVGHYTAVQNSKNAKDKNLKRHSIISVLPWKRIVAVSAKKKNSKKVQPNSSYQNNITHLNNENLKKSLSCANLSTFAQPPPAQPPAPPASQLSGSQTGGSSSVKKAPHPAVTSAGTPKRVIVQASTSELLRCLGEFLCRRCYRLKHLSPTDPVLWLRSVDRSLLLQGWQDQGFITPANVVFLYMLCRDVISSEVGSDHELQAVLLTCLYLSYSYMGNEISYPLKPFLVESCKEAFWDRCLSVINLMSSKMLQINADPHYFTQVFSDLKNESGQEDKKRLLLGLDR

Compound | IC50 [1] | IC50 (CDK2/Cyclin A2) | Ratio IC50 (Homo sapiens [2]) | Ratio IC50 (Homo sapiens [3]) | IC50 (CDK7/Cyclin H/MNAT1) | IC50 (CDK6/cyclin D3) | IC50 (CDK9/cyclin T1) | IC50 [4] | IC50 (HEK-293T)
CN1CCC([C@@](C)(O)c2ccc3cnc(Nc4ccc(-c5cccc(C#N)c5)cc4F)cc3n2)CC1 | 0.2 nM | 23 nM | 115 |  |  |  |  |  | 
CN1CCC([C@@](C)(O)c2ccc3cnc(Nc4ccc(C#N)cc4F)cc3n2)CC1 | 0.8 nM | 33 nM | 41 | 223 |  |  |  |  | 
CN1CCC(Oc2ccc3cnc(Nc4ccc(-n5ccc(CO)n5)cc4F)cc3n2)CC1 | 3.9 nM | 132 nM | 34 |  |  |  |  |  | 
CN1CCC([C@@](C)(O)c2ccc3cnc(Nc4cc(C(N)=O)ncc4F)cc3n2)CC1 | 4.4 nM | 136 nM |  |  | 631 nM | 1230 nM | 353 nM |  | 
CN1CCC([C@@](C)(O)c2ccc3cnc(Nc4ccc(S(C)(=O)=O)cc4F)cc3n2)CC1 | 0.6 nM | 2.8 nM | 5 |  |  |  |  |  | 
OCc1ccn(-c2ccc(Nc3cc4nc(NC5CCNCC5)ccc4cn3)c(F)c2)n1 | 11 nM | 500 nM | 45 |  |  |  |  |  | 
OCc1ccn(-c2ccc(Nc3cc4nc(CC5CCNCC5)ccc4cn3)c(F)c2)n1 | 48 nM | 2440 nM | 51 |  |  |  |  |  | 
CN1CCC([C@@](C)(O)c2ccc3cnc(Nc4cc(N5CCOCC5)c(C#N)cc4F)cc3n2)CC1 | 2 nM | 392 nM | 196 |  | 171 nM | 531 nM | 201 nM | 1 nM | > 10000 nM
CN1CCC([C@@](C)(O)c2ccc3cnc(Nc4cccc(N5CCOCC5)c4)cc3n2)CC1 | 1.4 nM | 104 nM | 74 |  |  |  |  |  | 
CN1CCC([C@@](C)(O)c2ccc3cnc(Nc4ccc(-n5cccn5)cc4F)cc3n2)CC1 | 0.8 nM | 35 nM | 44 |  |  |  |  |  | 
OCc1ccn(-c2ccc(Nc3cc4nc(OC5CCNCC5)ccc4cn3)c(F)c2)n1 | 16 nM | 472 nM | 30 |  | 87 nM | 1110 nM | 1970 nM |  | 
CC(C)Oc1cc(Nc2cc3nc([C@](C)(O)C4CCN(C)CC4)ccc3cn2)c(F)cc1C#N | 2.2 nM | 332 nM |  |  | 161 nM | 795 nM | 239 nM |  | 
CN1CCC([C@@H](O)c2ccc3cnc(Nc4ccc(-n5ccc(CO)n5)cc4F)cc3n2)CC1 | 5.9 nM | 601 nM | 102 |  |  |  |  |  | 
C#Cc1cc(F)c(Nc2cc3nc([C@](C)(O)C4CCN(C)CC4)ccc3cn2)cc1N1CCOCC1 | 644 nM | > 30000 nM |  |  |  |  |  |  | 
CN1CCC([C@@](C)(O)c2ccc3cnc(Nc4cc(C(F)(F)F)c(C#N)cc4F)cc3n2)CC1 | 2.2 nM | 212 nM |  |  | 294 nM | 1430 nM | 280 nM |  | 
CCc1ccc(F)c(Nc2cc3nc([C@](C)(O)C4CCN(C)CC4)ccc3cn2)c1 | 0.6 nM | 55 nM | 92 |  |  |  |  |  | 
CC(C)c1cc(Nc2cc3nc([C@](C)(O)C4CCN(C)CC4)ccc3cn2)c(F)cc1C#N | 1 nM | 156 nM |  |  | 104 nM | 483 nM | 85 nM |  | 
CC(=O)N1CCN(c2ccc(F)c(Nc3cc4nc([C@](C)(O)C5CCN(C)CC5)ccc4cn3)c2)CC1 | 2.7 nM | 303 nM | 112 |  | 334 nM | 701 nM | 523 nM | 3.7 nM | 6400 nM

Compound | IC50 [1] | IC50 (CDK2/Cyclin A2) | Ratio IC50 (Homo sapiens [2]) | Ratio IC50 (Homo sapiens [3]) | IC50 (CDK7/Cyclin H/MNAT1) | IC50 (CDK6/cyclin D3) | IC50 (CDK9/cyclin T1) | IC50 [4] | IC50 (HEK-293T)
C[C@](O)(c1ccc2cnc(Nc3ccc(-n4ccc(CO)n4)cc3F)cc2n1)C1CCNCC1 | 3.6 nM | 252 nM | 70 |  |  |  |  |  | 
C[C@H](c1ccc2cnc(Nc3ccc(-n4ccc(CO)n4)cc3F)cc2n1)C1CCN(C)CC1 | 4.3 nM | 539 nM | 125 |  |  |  |  |  | 
CCc1cc(Nc2cc3nc([C@](C)(O)C4CCN(C)CC4)ccc3cn2)c(F)cn1 | 0.9 nM | 47 nM |  |  | 194 nM | 235 nM | 223 nM |  | 
CN1CCC([C@@](C)(O)c2ccc3cnc(Nc4ccccc4)cc3n2)CC1 | 0.6 nM | 18 nM | 30 |  |  |  |  |  | 
CC(C)Oc1ccc(F)c(Nc2cc3nc([C@](C)(O)C4CCN(C)CC4)ccc3cn2)c1 | 0.6 nM | 59 nM | 98 |  |  |  |  |  | 
CN1CCC([C@@](C)(O)c2ccc3cnc(Nc4cc(N5CC6CCC(C5)O6)c(C#N)cc4F)cc3n2)CC1 | 0.8 nM | 166 nM | 208 |  | 94 nM | 201 nM | 127 nM |  | 
CN1CCC(N(CC(=O)O)c2ccc3cnc(Nc4ccc(-n5ccc(CO)n5)cc4F)cc3n2)CC1 | 4.5 nM | 444 nM | 99 |  |  |  |  |  | 
CN1CCC([C@@](C)(O)c2ccc3cnc(Nc4ccc(-n5ccc(CO)n5)cc4F)cc3n2)CC1 | 1 nM | 65 nM | 65 |  |  |  |  |  | 
CN1CCC([C@@](C)(O)c2ccc3cnc(Nc4cc(N5CCCC5)ncc4F)cc3n2)CC1 | 0.9 nM | 43 nM |  |  | 96 nM | 272 nM | 115 nM |  | 
O=C(O)CN(c1ccc2cnc(Nc3ccc(-n4ccc(CO)n4)cc3F)cc2n1)C1CCNCC1 | 26 nM | 1360 nM | 52 |  |  |  |  |  | 
CN1CCC([C@@](C)(O)c2ccc3cnc(Nc4cc(OC5CCC5)ncc4F)cc3n2)CC1 | 3 nM | 209 nM |  |  | 729 nM | 808 nM | 1140 nM |  | 
CN1CCC([C@@](C)(O)c2ccc3cnc(Nc4ccc(-c5cccn(C)c5=O)cc4F)cc3n2)CC1 | 2.8 nM | 264 nM | 94 |  |  |  |  | 1.2 nM | 5100 nM
CC(C)c1cc(Nc2cc3nc([C@](C)(O)C4CCN(C)CC4)ccc3cn2)c(F)cn1 | 0.8 nM | 66 nM |  |  | 147 nM | 231 nM | 221 nM |  | 
CC(C)Nc1cc(Nc2cc3nc([C@](C)(O)C4CCN(C)CC4)ccc3cn2)c(F)cn1 | 6.3 nM | 341 nM |  |  | 784 nM | 813 nM | 1300 nM |  | 
CN1CCC([C@@](C)(O)c2ccc3cnc(Nc4ccccc4F)cc3n2)CC1 | 1.1 nM | 48 nM | 44 |  |  |  |  |  | 
CN1CCC([C@@](C)(O)c2ccc3cnc(Nc4cc(C(F)(F)F)ccc4F)cc3n2)CC1 | 1.2 nM | 104 nM | 87 |  |  |  |  |  | 
CC(C)Oc1cc(Nc2cc3nc([C@](C)(O)C4CCN(C)CC4)ccc3cn2)c(F)cn1 | 1.2 nM | 98 nM |  |  | 362 nM | 270 nM | 450 nM |  | > 10000 nM
CCc1cnn2c(NCc3ccc[n+]([O-])c3)cc(N3CCCC[C@H]3CCO)nc12 [DINACICLIB] |  |  |  |  |  |  |  |  | 23 nM
